Source: ChEMBL document CHEMBL4265943, “Design and synthesis of potent dual inhibitors of JAK2 and HDAC based on fusing the pharmacophores of XL019 and vorinostat” (Eur J Med Chem, 2018)
pIC50: −log10 of the molar value.

Columns and labels:
[1] = biological target: Tyrosine-protein kinase JAK2 (Homo sapiens, UniProt O60674); assay: Inhibition of human JAK2 using poly(Glu:Tyr)(4:1) as substrate preincubated for 20 mins followed by [gamma33P]ATP addition measured after 120 mins by ion exchange filter paper method
Sequence of Tyrosine-protein kinase JAK2 (O60674 whole entry): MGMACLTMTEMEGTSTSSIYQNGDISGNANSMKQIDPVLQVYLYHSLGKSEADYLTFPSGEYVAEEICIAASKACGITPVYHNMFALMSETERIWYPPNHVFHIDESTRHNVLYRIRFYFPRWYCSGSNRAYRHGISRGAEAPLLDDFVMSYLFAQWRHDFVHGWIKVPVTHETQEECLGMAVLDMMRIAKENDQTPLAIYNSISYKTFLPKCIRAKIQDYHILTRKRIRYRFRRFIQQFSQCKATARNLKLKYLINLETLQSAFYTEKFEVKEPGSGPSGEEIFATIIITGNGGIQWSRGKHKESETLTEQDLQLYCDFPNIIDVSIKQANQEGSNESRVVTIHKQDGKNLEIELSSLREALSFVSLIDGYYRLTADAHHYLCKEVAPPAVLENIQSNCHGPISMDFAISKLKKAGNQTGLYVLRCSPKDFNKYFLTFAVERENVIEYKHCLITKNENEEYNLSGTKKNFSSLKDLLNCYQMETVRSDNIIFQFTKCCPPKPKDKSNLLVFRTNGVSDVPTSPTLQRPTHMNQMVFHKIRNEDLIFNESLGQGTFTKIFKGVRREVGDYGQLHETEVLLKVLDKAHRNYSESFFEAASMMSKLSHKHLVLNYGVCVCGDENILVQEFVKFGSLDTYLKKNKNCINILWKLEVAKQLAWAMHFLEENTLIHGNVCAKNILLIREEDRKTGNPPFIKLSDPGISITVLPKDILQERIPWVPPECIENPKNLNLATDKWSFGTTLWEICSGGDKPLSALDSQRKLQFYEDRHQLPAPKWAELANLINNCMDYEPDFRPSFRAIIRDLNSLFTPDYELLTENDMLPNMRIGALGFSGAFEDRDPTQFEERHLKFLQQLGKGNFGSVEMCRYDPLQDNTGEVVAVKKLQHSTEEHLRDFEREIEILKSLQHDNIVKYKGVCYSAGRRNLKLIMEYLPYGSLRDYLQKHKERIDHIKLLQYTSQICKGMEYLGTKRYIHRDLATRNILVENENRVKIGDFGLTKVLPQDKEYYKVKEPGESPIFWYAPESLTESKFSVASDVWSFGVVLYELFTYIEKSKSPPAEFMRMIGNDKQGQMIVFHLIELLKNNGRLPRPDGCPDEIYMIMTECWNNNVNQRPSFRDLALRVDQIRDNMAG

[2] = biological target: Histone deacetylase 1 (Homo sapiens, UniProt Q13547); assay: Inhibition of HDAC1 (unknown origin) using Arg-His-Lys-Lys(Ac) as substrate preincubated with enzyme followed by substrate addition for 2 hrs and measured for 1.5 hrs at 15 mins time interval by fluorescence assay
Sequence of Histone deacetylase 1 (Q13547 whole entry): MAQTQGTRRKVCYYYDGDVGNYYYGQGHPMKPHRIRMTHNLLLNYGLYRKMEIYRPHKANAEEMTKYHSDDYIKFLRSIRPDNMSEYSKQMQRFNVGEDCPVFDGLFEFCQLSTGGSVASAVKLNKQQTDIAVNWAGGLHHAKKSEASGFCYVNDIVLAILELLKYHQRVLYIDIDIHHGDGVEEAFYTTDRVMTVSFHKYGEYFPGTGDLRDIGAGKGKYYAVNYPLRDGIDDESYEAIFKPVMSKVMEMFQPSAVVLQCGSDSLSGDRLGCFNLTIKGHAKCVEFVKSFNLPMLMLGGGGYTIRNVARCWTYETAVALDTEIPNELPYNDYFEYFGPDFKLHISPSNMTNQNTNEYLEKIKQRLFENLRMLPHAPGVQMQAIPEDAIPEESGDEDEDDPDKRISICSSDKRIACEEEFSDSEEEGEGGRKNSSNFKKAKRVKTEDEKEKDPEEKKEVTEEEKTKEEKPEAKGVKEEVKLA

[3] = biological target: T1, Protein deacetylase HDAC6 (Homo sapiens, UniProt Q9UBN7); assay: Inhibition of HDAC6 (unknown origin) using Arg-His-Lys-Lys(Ac) as substrate preincubated with enzyme followed by substrate addition for 2 hrs and measured for 1.5 hrs at 15 mins time interval by fluorescence assay
T1 sequence (Q9UBN7 whole entry): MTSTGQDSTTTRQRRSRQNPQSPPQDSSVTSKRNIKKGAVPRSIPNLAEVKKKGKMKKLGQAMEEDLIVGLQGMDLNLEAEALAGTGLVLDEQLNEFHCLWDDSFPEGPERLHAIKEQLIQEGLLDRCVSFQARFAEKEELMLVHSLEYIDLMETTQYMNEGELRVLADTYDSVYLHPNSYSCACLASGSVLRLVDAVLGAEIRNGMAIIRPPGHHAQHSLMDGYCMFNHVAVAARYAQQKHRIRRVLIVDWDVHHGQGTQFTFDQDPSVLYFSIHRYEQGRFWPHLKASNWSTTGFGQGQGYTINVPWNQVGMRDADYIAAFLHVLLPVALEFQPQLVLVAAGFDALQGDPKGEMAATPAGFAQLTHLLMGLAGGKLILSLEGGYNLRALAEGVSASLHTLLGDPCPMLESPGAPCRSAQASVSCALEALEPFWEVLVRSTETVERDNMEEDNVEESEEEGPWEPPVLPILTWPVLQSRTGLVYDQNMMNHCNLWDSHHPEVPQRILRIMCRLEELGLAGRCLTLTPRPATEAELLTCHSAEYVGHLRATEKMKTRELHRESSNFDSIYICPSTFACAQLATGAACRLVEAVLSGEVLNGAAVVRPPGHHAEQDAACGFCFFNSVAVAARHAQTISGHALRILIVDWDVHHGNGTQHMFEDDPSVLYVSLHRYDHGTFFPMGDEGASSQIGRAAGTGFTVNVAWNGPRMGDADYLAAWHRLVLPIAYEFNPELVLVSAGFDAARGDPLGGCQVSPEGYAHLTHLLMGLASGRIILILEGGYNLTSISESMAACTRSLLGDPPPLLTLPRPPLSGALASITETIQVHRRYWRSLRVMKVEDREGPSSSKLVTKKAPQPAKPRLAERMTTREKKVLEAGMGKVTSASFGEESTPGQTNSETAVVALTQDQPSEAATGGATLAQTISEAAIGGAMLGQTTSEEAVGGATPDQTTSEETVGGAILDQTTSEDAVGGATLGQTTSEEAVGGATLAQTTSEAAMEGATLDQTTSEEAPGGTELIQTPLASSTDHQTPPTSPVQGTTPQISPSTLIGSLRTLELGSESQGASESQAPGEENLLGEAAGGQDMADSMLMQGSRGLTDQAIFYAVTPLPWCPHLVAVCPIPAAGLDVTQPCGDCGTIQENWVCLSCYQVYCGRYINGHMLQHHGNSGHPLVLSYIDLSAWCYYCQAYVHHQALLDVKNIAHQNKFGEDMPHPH

[4] = test system: HCT-116; assay: Antiproliferative activity against human HCT116 cells after 72 hrs by MTT assay; type: functional, cell-based; settings: HCT-116, 72 h
[5] = test system: MDA-MB-231; assay: Antiproliferative activity against human MDA-MB-231 cells after 72 hrs by MTT assay; type: functional, cell-based; settings: MDA-MB-231, 72 h
[6] = test system: MCF7; assay: Antiproliferative activity against human MCF7 cells after 72 hrs by MTT assay; type: functional, cell-based; settings: MCF7, 72 h
[7] = test system: PC-3; assay: Antiproliferative activity against human PC3 cells after 72 hrs by MTT assay; type: functional, cell-based; settings: PC-3, 72 h
[8] = Antiproliferative activity against human AC10 cells after 72 hrs by MTT assay; type: cell-based
[9] = Antiproliferative activity against mouse TAMH cells after 72 hrs by MTT assay; type: cell-based
[10] = Selectivity index, ratio of CC50 for human AC10 cells to IC50 for human HCT116 cells; type: toxicity; settings: AC10 cells (CC50) and HCT116 cells (IC50)
[11] = Selectivity index, ratio of CC50 for mouse TAMH cells to IC50 for human HCT116 cells; type: toxicity; settings: TAMH cells (CC50) and HCT116 cells (IC50)
[12] = Selectivity index, ratio of CC50 for human AC10 cells to IC50 for human MDA-MB-231 cells; type: toxicity; settings: AC10 cells (CC50) and MDA-MB-231 cells (IC50)
[13] = Selectivity index, ratio of CC50 for mouse TAMH cells to IC50 for human MDA-MB-231 cells; type: toxicity; settings: TAMH cells (CC50) and MDA-MB-231 cells (IC50)
[14] = test system: HEL 92.1.7; assay: cells; type: functional, cell-based; settings: Homo sapiens, HEL 92.1.7, 72 h
Description: Antiproliferative activity against human HEL 92.1.7 cells after 72 hrs by MTT assay

[15] = test system: Jurkat; assay: Antiproliferative activity against human Jurkat cells after 72 hrs by MTT assay; type: functional, cell-based
[16] = test system: KMS-12-BM; assay: Antiproliferative activity against human KMS-12-BM cells after 72 hrs by MTT assay; type: functional, cell-based
[17] = Antiproliferative activity against human XG6 cells after 72 hrs by MTT assay; type: functional, cell-based; settings: XG6, 72 h
[18] = Selectivity index, ratio of CC50 for human AC10 cells to IC50 for human MCF7 cells; type: toxicity; settings: AC10 cells (CC50) and MCF7 cells (IC50)
[19] = Selectivity index, ratio of CC50 for mouse TAMH cells to IC50 for human MCF7 cells; type: toxicity; settings: TAMH cells (CC50) and MCF7 cells (IC50)
[20] = Selectivity index, ratio of CC50 for human AC10 cells to IC50 for human PC3 cells; type: toxicity; settings: AC10 cells (CC50) and PC3 cells (IC50)
[21] = Selectivity index, ratio of CC50 for mouse TAMH cells to IC50 for human PC3 cells; type: toxicity; settings: TAMH cells (CC50) and PC3 cells (IC50)
[22] = Selectivity index, ratio of CC50 for human AC10 cells to IC50 for human HEL 92.1.7 cells; type: toxicity; settings: AC10 cells (CC50) and HEL 92.1.7 cells (IC50)
[23] = Selectivity index, ratio of CC50 for mouse TAMH cells to IC50 for human HEL 92.1.7 cells; type: toxicity; settings: TAMH cells (CC50) and HEL 92.1.7 cells (IC50)
[24] = Selectivity index, ratio of CC50 for human AC10 cells to IC50 for human Jurkat cells; type: toxicity; settings: AC10 cells (CC50) and Jurkat cells (IC50)
[25] = Selectivity index, ratio of CC50 for mouse TAMH cells to IC50 for human Jurkat cells; type: toxicity; settings: TAMH cells (CC50) and Jurkat cells (IC50)
[26] = Selectivity index, ratio of CC50 for human AC10 cells to IC50 for human KMS-12-BM cells; type: toxicity; settings: AC10 cells (CC50) and KMS-12-BM cells (IC50)
[27] = Selectivity index, ratio of CC50 for mouse TAMH cells to IC50 for human KMS-12-BM cells; type: toxicity; settings: TAMH cells (CC50) and KMS-12-BM cells (IC50)
[28] = Selectivity index, ratio of CC50 for human AC10 cells to IC50 for human XG6 cells; type: toxicity; settings: AC10 cells (CC50) and XG6 cells (IC50)
[29] = Selectivity index, ratio of CC50 for mouse TAMH cells to IC50 for human XG6 cells; type: toxicity; settings: TAMH cells (CC50) and XG6 cells (IC50)

pIC50 [1]	pIC50 [2]	pIC50 [3]	pIC50 [4]	pIC50 [5]	pIC50 [6]	pIC50 [7]	pIC50 [14]	pIC50 [15]	SMILES	CC50 at 72 h [8] [µM]	CC50 at 72 h [9] [µM]	selectivity ratio [10]	selectivity ratio [11]	selectivity ratio [12]	selectivity ratio [13]	pIC50 [16]	pIC50 [17]	selectivity ratio [18]	selectivity ratio [19]	selectivity ratio [20]	other results
8.53	5.34	8.01	4.74	4.94	4.51	4.48	5.05	5.00	CC(=O)Nc1ccc(-c2nc(Nc3cccc(OCCCCCCCC(=O)NO)c3)ncc2C)cc1	20.1 to 20.7	9.14	1.12	0.5	1.81	0.8	6.27	5.08	0.67	0.3	0.63	selectivity ratio [21]: 0.28; selectivity ratio [22]: 2.31; selectivity ratio [23]: 1.02; selectivity ratio [24]: 0.23; selectivity ratio [25]: 0.91; selectivity ratio [26]: 38.3; selectivity ratio [27]: 17; selectivity ratio [28]: 2.49; selectivity ratio [29]: 1.1
8.41	6.81	8.21	5.92	5.85	5.77	5.56			CC(=O)Nc1ccc(-c2nc(Nc3cccc(OCCCCCCC(=O)NO)c3)ncc2C)cc1	4.84	3.94	4.07	3.31	3.46	2.81			2.83	2.3	1.75	selectivity ratio [21]: 1.43

Second part, the molecule before the results:

SMILES	pIC50 [1]	pIC50 [2]	pIC50 [3]	pIC50 [4]	pIC50 [5]	pIC50 [6]	pIC50 [7]	pIC50 [14]	pIC50 [15]	CC50 at 72 h [8] [µM]	CC50 at 72 h [9] [µM]	selectivity ratio [10]	selectivity ratio [11]	selectivity ratio [12]	selectivity ratio [13]	pIC50 [16]	pIC50 [17]	selectivity ratio [18]	selectivity ratio [19]	selectivity ratio [20]	other results
CC(=O)Nc1ccc(-c2ccnc(Nc3cccc(NC(=O)CCCCCCC(=O)NO)c3)n2)cc1	8.04	7.49	9.09	5.94	5.61	6.49	6.47	< 5.00	< 5.00	19.5	12.5	9.91	6.36	12.7	8.14						
CC(=O)Nc1ccc(-c2ccnc(Nc3ccc(OCCCCCC(=O)NO)cc3)n2)cc1		7.05	8.89	5.94	5.99	5.70	5.82	5.87	5.99	5.74	7.39					7.15	5.97				
CC(=O)Nc1ccc(-c2ccnc(Nc3ccc(OCCCCCCCC(=O)NO)cc3)n2)cc1		5.77	7.85	5.74	5.27	5.26	5.33	5.41	5.46	3.5	9.33					5.71	4.99				
CC(CCCCCC(=O)NO)n1cc(-c2ncnc3[nH]ccc23)cn1 (stereo not given)				5.63	6.10	6.08	5.62	5.88	6.33							5.69	5.70				
CN1CCN(CC(=O)Nc2ccc(-c3ccnc(Nc4ccc(OCCCCCCC(=O)NO)cc4)n3)cc2)CC1	7.02	6.85	8.21	5.77	5.41	5.32	5.39			4.1	8.07	2.43	4.78	1.06	2.08			0.85	1.67	1	selectivity ratio [21]: 1.97
